This is an account of results in patent publication US4258185A, “Pyridazinone compounds” (Yoshitomi Pharmaceutical Industries, Ltd., priority 1980, dated 1981).

Where a name gives a salt, the structure may show the parent alone.

Test [1] concerns platelet aggregation. The test is described as follows: Inhibitory activity on platelet aggregation in rats (ADP-induced, after oral treatment). The class given is in vivo. To be noted: Rattus norvegicus, 2 hours after oral treatment, 1.5×10^-5 M adenosine diphosphate, read-out: Percent inhibition of platelet aggregation, Rat. The procedure: (§1) I. Inhibitory activity on platelet aggregation in rats and rabbits
(§2) The citrated blood was obtained 2 hours after the oral treatment with test compounds. The platelet aggregation of platelet rich-plasma was induced by addition of 1.5×10^-5 M adenosine diphosphate (final concentration) and was measured with a Born type six channel aggregometer (G.V.R. Born, J. Physiol. 162, 67 (1962)). […] II. Antihypertensive activity in spontaneously hypertensive rats

Test [2] deals with spontaneously hypertensive rats. The test is described as follows: Antihypertensive activity in spontaneously hypertensive rats (tail blood pressure). The note with it: po, decrease of maximum blood pressure at 5 hours after treatment. The class given is in vivo, rat. The procedure: as §2
A group of 5 spontaneously hypertensive rats (300-350 g) was used. Tail blood pressure was determined by a rat tail manometer (NARCO, PE-300) without anesthesia immediately before and 5 hours after the oral treatment with test compounds. The rat was warmed at 40° C. for 10 minutes. The apparatus detects blood flow pulses in the tail by a pulse sensor. The arterial blood flow was interrupted by applying pressure to the tail through a pneumatic cuff. The blood flow reappeared when the cuff pressure was decreased. The value was approximately equal to the maximum blood pressure.

In test [3] the test system is platelet aggregation. The test is described as follows: Inhibitory activity on platelet aggregation in rabbits (ADP-induced, after oral treatment). The class given is in vivo. The note with it: Oryctolagus cuniculus, 2 hours after oral treatment, 1.5×10^-5 M adenosine diphosphate, ± SE, read-out: Percent inhibition of platelet aggregation, Rabbit. The procedure: as §1, §2

Take `CCC1CC(=O)NN=C1c1ccc2c(c1)CCC(=O)N2CC` (stereo not drawn) [Compound G, 6-(5-Ethyl-3-oxo-2,3,4,5-tetrahydropyridazin-6-yl)-1-ethyl-1,2,3,4-tetrahydroquinolin-2-one]: in the test with platelet aggregation [1], the inhibition (as a rule, how much of the control response was suppressed) at 3 mg/kg worked out at 34%.

For `CN1C(=O)CCc2cc(C3=NNC(=O)CC3CO)ccc21` (stereo not drawn) [Compound F, 6-(5-Hydroxymethyl-3-oxo-2,3,4,5-tetrahydropyridazin-6-yl)-1-methyl-1,2,3,4-tetrahydroquinolin-2-one], the inhibition at 3 mg/kg with platelet aggregation [1] is 62%. Besides, in test [2] (30 mg/kg), the “Decrease of tail blood pressure in SHR” value amounted to 92 mmHg.

As for `CCN1C(=O)CCc2cc(C3=NNC(=O)CC3C)ccc21` (stereo not drawn) [Compound J, 6-(5-Methyl-3-oxo-2,3,4,5-tetrahydropyridazin-6-yl)-1-ethyl-1,2,3,4-tetrahydroquinolin-2-one], the inhibition at 3 mg/kg with platelet aggregation [1] amounted to 35%.

For the compound `CCN1C(=O)CCc2cc(C3=NNC(=O)CC3CO)ccc21` (stereo not drawn) [Compound H, 6-(5-Hydroxymethyl-3-oxo-2,3,4,5-tetrahydropyridazin-6-yl)-1-ethyl-1,2,3,4-tetrahydroquinolin-2-one], in the test on platelet aggregation [1], the inhibition at 3 mg/kg came to 46%.

As to `CC1CC(=O)NN=C1c1ccc2c(c1)C(C)CC(=O)N2C` (stereo not drawn) [Compound D, 6-(5-Methyl-3-oxo-2,3,4,5-tetrahydropyridazin-6-yl)-1,4-dimethyl-1,2,3,4-tetrahydroquinolin-2-one], the inhibition at 0.1 mg/kg in the test on platelet aggregation [1] (0.1 mg/kg) came to 38%. Also, in the test on platelet aggregation [3] (0.3 mg/kg), the inhibition at 0.3 mg/kg was 78 ± 6%. The entries for the “Decrease of tail blood pressure in SHR” value in test [2] (0.3 mg/kg) and in test [2] (3 mg/kg) were 16 mmHg and 71 mmHg, respectively.

Take `CC(=O)OCC1CC(=O)NN=C1c1ccc2c(c1)CCC(=O)N2C` (stereo not drawn) [Compound B, 6-(5-Acetoxymethyl-3-oxo-2,3,4,5-tetrahydropyridazin-6-yl)-1-methyl-1,2,3,4-tetrahydroquinolin-2-one]: the inhibition at 3 mg/kg with platelet aggregation [1] was determined as 51%; in the test on platelet aggregation [3], 85 ± 6%. Besides, the “Decrease of tail blood pressure in SHR” value in test [2] (3 mg/kg) was 31 mmHg; in test [2] (30 mg/kg) it was 62 mmHg.

For `CC1CC(=O)NN=C1c1ccc2c(c1)C(C)(C)CC(=O)N2C` (stereo not drawn) [Compound C, 6-(5-Methyl-3-oxo-2,3,4,5-tetrahydropyridazin-6-yl)-1,4,4-trimethyl-1,2,3,4-tetrahydroquinolin-2-one], the inhibition at 3 mg/kg with platelet aggregation [1] came to 59%; with platelet aggregation [3], 93 ± 1%. The “Decrease of tail blood pressure in SHR” value in test [2] (3 mg/kg) came out at 48 mmHg; in test [2] (30 mg/kg) it was 63 mmHg.

As for `CC1CC(=O)N(CCN2CCOCC2)N=C1c1ccc2c(c1)CCC(=O)N2C` (stereo not drawn) [Compound K, 6-[5-Methyl-2-(2-morpholinoethyl)-3-oxo-2,3,4,5-tetrahydropyridazin-6-yl]-1-methyl-1,2,3,4-tetrahydroquinolin-2-one hydrochloride hemihydrate], the inhibition at 3 mg/kg with platelet aggregation [1] came to 51%; in the test on platelet aggregation [3], 75 ± 8%. For the same compound, in test [2] (3 mg/kg), the “Decrease of tail blood pressure in SHR” value was 45 mmHg.

For the compound `CCN1C(=O)CCc2cc(C3=NNC(=O)CC3COC(C)=O)ccc21` (stereo not drawn) [Compound I, 6-(5-Acetoxymethyl-3-oxo-2,3,4,5-tetrahydropyridazin-6-yl)-1-ethyl-1,2,3,4-tetrahydroquinolin-2-one], the inhibition at 3 mg/kg in the test on platelet aggregation [1] was 46%. The “Decrease of tail blood pressure in SHR” value in test [2] (30 mg/kg) is on record as 47 mmHg.

Regarding `CN1C(=O)CC(C)(C)c2cc(C3=NNC(=O)CC3CO)ccc21` (stereo not drawn) [Compound E, 6-(5-Hydroxymethyl-3-oxo-2,3,4,5-tetrahydropyridazin-6-yl)-1,4,4-trimethyl-1,2,3,4-tetrahydroquinolin-2-one], in the test on platelet aggregation [1] (10 mg/kg), the inhibition at 10 mg/kg was found to be 43%. Besides, the inhibition at 30 mg/kg in the test on platelet aggregation [3] (30 mg/kg) was 48 ± 16%.
